Experimental data as given in ChEMBL document CHEMBL1137891, “5-Carboxamido-1,3,2-dioxaphosphorinanes, potent inhibitors of MTP” (Bioorg Med Chem Lett, 2004).

How the values were obtained:
[1] = test system: Cricetinae gen. sp.; experiment: Percentage change in serum HDL cholesterol in male hamster after 3-day treatment at 15 mpk; format: functional
[2] = molecular target: T1, Microsomal triglyceride transfer protein large subunit (Homo sapiens, UniProt P55157); experiment: In vitro inhibitory concentration against human Microsomal triglyceride transfer protein; format: functional
T1 sequence (P55157 whole entry): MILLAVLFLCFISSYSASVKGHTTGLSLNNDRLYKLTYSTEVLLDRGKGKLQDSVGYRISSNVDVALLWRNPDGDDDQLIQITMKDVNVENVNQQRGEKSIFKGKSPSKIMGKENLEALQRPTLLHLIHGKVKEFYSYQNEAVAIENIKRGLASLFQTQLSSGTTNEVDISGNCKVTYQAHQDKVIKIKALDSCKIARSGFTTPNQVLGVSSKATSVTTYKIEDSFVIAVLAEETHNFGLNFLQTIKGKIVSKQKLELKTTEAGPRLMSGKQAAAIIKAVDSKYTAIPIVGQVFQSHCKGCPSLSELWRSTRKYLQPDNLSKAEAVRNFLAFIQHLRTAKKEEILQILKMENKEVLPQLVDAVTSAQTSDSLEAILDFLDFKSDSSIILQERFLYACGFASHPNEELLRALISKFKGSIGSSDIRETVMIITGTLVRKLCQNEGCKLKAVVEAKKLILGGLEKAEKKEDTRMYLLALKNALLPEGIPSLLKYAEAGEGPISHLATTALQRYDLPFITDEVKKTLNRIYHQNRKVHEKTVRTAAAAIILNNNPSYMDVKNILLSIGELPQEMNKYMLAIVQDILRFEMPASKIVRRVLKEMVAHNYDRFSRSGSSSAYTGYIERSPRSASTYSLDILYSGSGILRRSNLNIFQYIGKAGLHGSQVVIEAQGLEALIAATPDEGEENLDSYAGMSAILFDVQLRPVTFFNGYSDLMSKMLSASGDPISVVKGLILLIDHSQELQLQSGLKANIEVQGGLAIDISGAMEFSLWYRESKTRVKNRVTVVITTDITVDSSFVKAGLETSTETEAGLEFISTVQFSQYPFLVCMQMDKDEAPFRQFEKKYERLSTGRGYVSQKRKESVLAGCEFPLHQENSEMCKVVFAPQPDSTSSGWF

[3] = test system: HepG2; experiment: inhibitory activity against secretion of lipoproteins apoB and apoA1 from human HepG2 cell lines; format: functional; conditions: read-out: ED50 (the source's name)
[4] = test system: Cricetinae gen. sp.; experiment: Concentration required for change in serum HDL cholesterol in male hamster after 3-day treatment; format: functional, Cricetulus griseus; conditions: 72 h
[5] = organism: Mesocricetus auratus; experiment: Percentage change in serum HDL cholesterol in male hamster after 3-day treatment at 30 mpk
[6] = molecular target: T1, Microsomal triglyceride transfer protein large subunit; experiment: In vitro inhibition concentration required against triglyceride transfer of human Microsomal triglyceride transfer protein; format: functional; conditions: read-out: I50
[7] = test system: Cricetinae gen. sp.; experiment: Percentage change in serum HDL cholesterol in male hamster after 3-day treatment at 20 mpk; format: functional, Cricetulus griseus

IC50 [2] | EC50 ([3]; Homo sapiens, HepG2) | SMILES | Activity [1] | Activity [5] | other results
5 nM | 0.9 nM | O=C(N[C@H]1CC[N@+]([O-])(CCCCC2(C(=O)NCC(F)(F)F)c3ccccc3-c3ccccc32)CC1)c1ccccc1-c1ccc(C(F)(F)F)cc1 | -77% | – | –
9 nM | 7.5 nM | O=C(NC1COP(=O)(CCCCC2(C(=O)NCC(F)(F)F)c3ccccc3-c3ccccc32)OC1)c1ccccc1-c1nc2ccccc2s1 (stereo not drawn) | -76% | – | ED50 [4]: 4 mg/kg
12 nM | – | O=C(NC1COP(=O)(CCCCC2(C(=O)NCC(F)(F)F)c3ccccc3-c3ccccc32)OC1)c1ccccc1N1CCOCC1 (stereo not drawn) | -3% | – | –
14 nM | 40 nM | O=C(NC1COP(=O)(CCCCC2(C(=O)NCC(F)(F)F)c3ccccc3-c3ccccc32)OC1)OCc1ccccc1 (stereo not drawn) | – | – | –
22 nM | 7 nM | CCCCOP(=O)(CCCCC1(C(=O)NCC(F)(F)F)c2ccccc2-c2ccccc21)OCCCC | – | -5% | –
– | – | O=C(NC1COP(=O)(CCCCC2(C(=O)NCC(F)(F)F)c3ccccc3-c3ccccc32)OC1)OCc1ccccc1 (cis isomer) | – | – | IC50 [6]: 210 nM
44 nM | – | O=C(NC1COP(=O)(CCCCC2(C(=O)NCC(F)(F)F)c3ccccc3-c3ccccc32)OC1)c1ccccc1-c1ccc(C(F)(F)F)cc1 (cis isomer) | – | – | Activity [7]: -4%; EC50 [3]: 18 nM
7 nM | – | O=C(NC1COP(=O)(CCCCC2(C(=O)NCC(F)(F)F)c3ccccc3-c3ccccc32)OC1)c1ccccc1-c1ccc(C(F)(F)F)cc1 (stereo in doubt; 3a) | – | -73% | ED50 [4]: 3.3 mg/kg; EC50 [3]: 0.65 nM
< 10 nM | 79 nM | O=C(NC1COP(=O)(CCCCC2(C(=O)NCC(F)(F)F)c3ccccc3-c3ccccc32)OC1)c1ccccc1-c1ccccn1 (trans isomer) | -19% | – | –
11 nM | 23 nM | O=C(NC1COP(=O)(CCCCC2(C(=O)NCC(F)(F)F)c3ccccc3-c3ccccc32)OC1)c1ccccc1 (trans isomer) | -12% | – | –
3 nM | – | O=C(NC1COP(=O)(CCCCC2(C(=O)NCC(F)(F)F)c3ccccc3-c3ccccc32)OC1)c1ccccc1-c1nc2ccccc2o1 (trans isomer) | – | -13% | –
– | 0.8 nM | O=C(NC1CCN(CCCCC2(C(=O)NCC(F)(F)F)c3ccccc3-c3ccccc32)CC1)c1ccccc1-c1ccc(C(F)(F)F)cc1 [LOMITAPIDE] | – | -92% | ED50 [4]: 2 mg/kg
